Assay results reported in ChEMBL document CHEMBL1140602, “A simple, yet highly accurate, QSAR model captures the complement inhibitory activity of compstatin” (Bioorg Med Chem, 2007).
Positions of bridges follow the written chain, without caps; N, C: chain ends. Residues, ends and D or L forms follow the SMILES beside them.

experiment: Inhibition of C3b activation relative to compstatin

| logIC50 | SMILES |
| --- | --- |
| -0.439 | CC(C)[C@@H]1NC(=O)[C@H](C(C)C)NC(=O)[C@@H](N)CSSC[C@@H](C(N)=O)NC(=O)[C@H](CCCNC(=N)N)NC(=O)[C@H](Cc2cnc[nH]2)NC(=O)[C@H](Cc2cnc[nH]2)NC(=O)CNC(=O)[C@H](Cc2c[nH]c3ccccc23)NC(=O)[C@H](CC(=O)O)NC(=O)[C@H](CCC(N)=O)NC1=O (H-CVVQDWGHHRC-NH2; disulfide 1-11) |
| -0.439 | CC(C)[C@@H]1NC(=O)[C@H](C(C)C)NC(=O)[C@@H](N)CSSC[C@@H](C(=O)O)NC(=O)[C@H](CCCNC(=N)N)NC(=O)[C@H](Cc2cnc[nH]2)NC(=O)[C@H](Cc2cnc[nH]2)NC(=O)CNC(=O)[C@H](Cc2c[nH]c3ccccc23)NC(=O)[C@H](CC(=O)O)NC(=O)[C@H](CCC(N)=O)NC1=O (H-CVVQDWGHHRC-OH; disulfide 1-11) |
| -0.319 | CC(C)[C@@H]1NC(=O)[C@H](C(C)C)NC(=O)[C@@H](N)CSSC[C@@H](C(=O)N[C@H](C(N)=O)[C@@H](C)O)NC(=O)[C@H](CCCNC(=N)N)NC(=O)[C@H](Cc2cnc[nH]2)NC(=O)[C@H](Cc2cnc[nH]2)NC(=O)CNC(=O)[C@H](Cc2c[nH]c3ccccc23)NC(=O)[C@H](CC(=O)O)NC(=O)[C@H](CCC(N)=O)NC1=O (H-CVVQDWGHHRCT-NH2; disulfide 1-11) |
| -0.264 | CC(C)[C@@H]1NC(=O)[C@@H](NC(=O)[C@@H](N)CC(=O)O)CSSC[C@@H](C(=O)N[C@H](C(N)=O)[C@@H](C)O)NC(=O)[C@H](CCCCN)NC(=O)[C@H](Cc2cnc[nH]2)NC(=O)[C@H](Cc2cnc[nH]2)NC(=O)CNC(=O)[C@H](Cc2c[nH]c3ccccc23)NC(=O)[C@H](CC(=O)O)NC(=O)[C@H](CCC(N)=O)NC(=O)[C@H](C(C)C)NC1=O (H-DCVVQDWGHHKCT-NH2; disulfide 2-12) |
| -0.226 | CC[C@H](C)[C@H](N)C(=O)N[C@H]1CSSC[C@@H](C(=O)N[C@H](C(N)=O)[C@@H](C)O)NC(=O)[C@H](CCCCN)NC(=O)[C@H](Cc2cnc[nH]2)NC(=O)[C@H](Cc2cnc[nH]2)NC(=O)CNC(=O)[C@H](Cc2c[nH]c3ccccc23)NC(=O)[C@H](CC(=O)O)NC(=O)[C@H](CCC(N)=O)NC(=O)[C@H](C(C)C)NC(=O)[C@H](C(C)C)NC1=O (H-ICVVQDWGHHKCT-NH2; disulfide 2-12) |
| 0.617 | CC(C)C[C@H](N)C(=O)N[C@H]1CSSC[C@@H](C(=O)NCC(N)=O)NC(=O)[C@H](CCCNC(=N)N)NC(=O)[C@H](Cc2cnc[nH]2)NC(=O)[C@H](Cc2c[nH]c3ccccc23)NC(=O)CNC(=O)[C@H](Cc2c[nH]c3ccccc23)NC(=O)[C@H](CC(=O)O)NC(=O)[C@H](CCC(N)=O)NC(=O)[C@H](C(C)C)NC(=O)[C@H](C(C)C)NC1=O (H-LCVVQDWGWHRCG-NH2; disulfide 2-12) |
| -0.301 | CC(C)C[C@@H]1NC(=O)[C@H](CCCNC(=N)N)NC(=O)CNC(=O)[C@H](Cc2c[nH]c3ccccc23)NC(=O)[C@H](CC(=O)O)NC(=O)[C@H](CCC(N)=O)NC(=O)[C@H](Cc2ccccc2)NC(=O)[C@H](C(C)C)NC(=O)[C@@H](NC(=O)[C@@H](N)CO)CSSC[C@@H](C(=O)N2CCC[C@H]2C(N)=O)NC(=O)[C@H](C)NC1=O (H-SCVFQDWGRLACP-NH2; disulfide 2-12) |
